Assay results published in ChEMBL document CHEMBL1255212, “Synthesis and antiviral evaluation of α-D-2',3'-didehydro-2',3'-dideoxy-3'-C-hydroxymethyl nucleosides” (Bioorg Med Chem Lett, 2010).
Converted amounts (≈) assume the structure as drawn. The source made the active and inactive calls. The rule behind the calls is not given here.

Experiments:
Assay type in all cases: functional, organism-based
[1] = test system: Human alphaherpesvirus 2; test: Antiviral activity against HSV2
[2] = test system: Human alphaherpesvirus 1; test: Antiviral activity against HSV1
[3] = test system: Human immunodeficiency virus 1; test: Antiviral activity against HIV1
[4] = test system: Human betaherpesvirus 5; test: Antiviral activity against HCMV

EC50 [2] | SMILES | Activity [1] | Activity [3] | Activity [4] | Activity [2]
33 µg/mL (≈ 130 µM) | Cc1cn([C@@H]2C=C(CO)[C@@H](CO)O2)c(=O)[nH]c1=O | inactive | inactive | inactive | –
– | Nc1ncnc2c1ncn2[C@@H]1C=C(CO)[C@@H](CO)O1 | inactive | inactive | inactive | inactive
– | NC1C=CN([C@@H]2C=C(CO)[C@@H](CO)O2)C(=O)N1 (some centres not stated) | inactive | inactive | inactive | inactive
